# Test results taken from patent US12612380B2, “Non-lysosomal glucosylceramidase inhibitors and uses thereof” (ALECTOS THERAPEUTICS INC., priority 2019, dated 2026).
# Target: T1, GBA2 (Homo sapiens, UniProt Q9HCG7)
# T1 sequence (Q9HCG7 1-927): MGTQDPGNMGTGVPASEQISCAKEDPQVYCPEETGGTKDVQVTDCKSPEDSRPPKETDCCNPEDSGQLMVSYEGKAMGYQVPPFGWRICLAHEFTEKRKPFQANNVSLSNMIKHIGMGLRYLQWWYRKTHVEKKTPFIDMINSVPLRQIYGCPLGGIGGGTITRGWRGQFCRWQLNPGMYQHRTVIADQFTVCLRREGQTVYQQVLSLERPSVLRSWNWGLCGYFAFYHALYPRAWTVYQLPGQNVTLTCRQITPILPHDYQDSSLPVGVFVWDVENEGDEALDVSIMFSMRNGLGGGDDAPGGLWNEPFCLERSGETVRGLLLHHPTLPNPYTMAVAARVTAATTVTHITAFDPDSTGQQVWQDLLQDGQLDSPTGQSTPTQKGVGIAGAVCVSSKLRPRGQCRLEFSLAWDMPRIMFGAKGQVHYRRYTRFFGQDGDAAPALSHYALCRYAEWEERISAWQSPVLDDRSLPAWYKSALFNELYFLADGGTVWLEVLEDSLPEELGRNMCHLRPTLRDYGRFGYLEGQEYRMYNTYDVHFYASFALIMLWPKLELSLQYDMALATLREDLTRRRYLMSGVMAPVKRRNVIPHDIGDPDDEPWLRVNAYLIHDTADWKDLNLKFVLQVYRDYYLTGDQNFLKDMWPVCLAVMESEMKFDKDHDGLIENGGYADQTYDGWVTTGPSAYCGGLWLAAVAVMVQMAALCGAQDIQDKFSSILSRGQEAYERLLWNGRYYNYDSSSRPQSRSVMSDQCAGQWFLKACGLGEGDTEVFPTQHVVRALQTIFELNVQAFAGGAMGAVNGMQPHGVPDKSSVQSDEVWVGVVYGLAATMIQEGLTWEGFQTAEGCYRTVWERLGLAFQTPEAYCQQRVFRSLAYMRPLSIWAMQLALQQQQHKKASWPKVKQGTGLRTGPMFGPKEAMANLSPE
# Assay: Determination of IC50 values for inhibition of GBA2 in cell lysate
# Format: biochemical
# Set-up: host or cells: HEK293T (lentiviral transduction, puromycin selection); used as cellular homogenate
# Settings: cellular homogenate of HEK293T cells overexpressing human GBA2, 250 μM 4-methylumbelliferone-β-D glucopyranoside, pH 5.5, 37° C., GCase inhibitor present; read-out: GBA2 IC50
# Text: Assay for Determination of IC50 Values for Inhibition of GBA2 in Cell Lysate
# Stable GBA2-expressing HEK293T cells were generated as follows. The PCR-amplified human GBA2 (GBA2 nucleotide accession number BC011363) using the following primers: Sense 5′---CGCAAATGGGCGGTAGGCGTG (SEQ ID NO:2)---3′ and antisense 5′---TAGTCAGCCATGGGGCGGAGA (SEQ ID NO:3)---3′) was cloned into pLenti-GIII-CMV by ABM Inc. The correctness of the construct was verified by sequencing. Lentivirus particles containing GBA2 in the pLenti-GIII-CMV plasmid were prepared using a third Generation Virus Packaging Mix (ABM cat #LV053-G074) in HEK293T cells and supplied as a virus particle suspension. The virus suspension was used for infection of HEK293T cells. Cell populations stably expressing human GBA2 were selected using puromycin for several weeks as determined by activity assays and western blot.
# Various concentrations of test compounds were prepared in DMSO and then diluted into buffer consisting of 100 mM citric acid, 200 mM disodium phosphate with 1% v/v C10E6, pH 5.5. Cellular homogenates (0.25 mg/mL) of the stable HEK293T-overexpressing GBA2 cell line were preincubated for 10 min on ice with an inhibitor of GCase (20 μM (6R,7R,8S)-8-ethyl-4-azaspiro[2.5]octane-6,7-diol). The reaction solution consisted of 20 μL of 750 μM 4-methylumbelliferone-β-D glucopyranoside in 5% DMSO in the same buffer, 20 μL of GBA2-cellular homogenate pre-treated with (6R,7R,8S)-8-ethyl-4-azaspiro[2.5]octane-6,7-diol and 20 μL of various concentrations of test compound in 10% DMSO in the same buffer. The final concentrations in the reaction were 0.083 mg/mL GBA2-cellular homogenate, 250 μM 4-methylumbelliferone-β-D glucopyranoside, and various concentrations of inhibitor. The inhibitor and GBA2-cellular homogenate were preincubated together for 5 min at 37° C. The reaction was initiated by addition of substrate and allowed to proceed for 20 min at 37° C. to assess GBA2 activity. Reactions were stopped by the addition of an equal volume (60 μL) of 0.5 M NaOH, 0.3 M glycine, pH 10.5. Fluorescence was measured on a Biotek Synergy H4 plate reader at wavelengths of 365 nm for excitation and 450 nm for emission. Incubations without added enzyme or added inhibitors were used to define no enzyme activity and maximal enzyme activity, respectively. IC50 values were determined by fitting the data to a log[inhibitor concentration] versus response curve using GraphPad Prism. IC50 values were calculated as the concentration of inhibitor required to inhibit GBA2 activity by 50%.
row,Structure (SMILES),IC50
1,"C[C@@H]1[C@@H](O)[C@H](O)[C@@H](O)CN1CCCc1ccccc1 [Example 77, (2R,3R,4R,5S)-2-methyl-1-(3-phenylpropyl)piperidine-3,4,5-triol]",< 100 nM
2,"C[C@@H]1[C@@H](O)[C@H](O)[C@@H](O)CN1CCCc1ccccc1F [Example 78, (2R,3R,4R,5S)-1-(3-(2-fluorophenyl)propyl)-2-methylpiperidine-3,4,5-triol]",< 100 nM
3,"C[C@@H]1[C@@H](O)[C@H](O)[C@@H](O)CN1CCCc1ccc(F)cc1 [Example 79, (2R,3R,4R,5S)-1-(3-(4-fluorophenyl)propyl)-2-methylpiperidine-3,4,5-triol]",< 100 nM
4,"C[C@@H]1[C@@H](O)[C@H](O)[C@@H](O)CN1CCCc1cccs1 [Example 80, (2R,3R,4R,5S)-2-methyl-1-(3-(thiophen-2-yl)propyl)piperidine-3,4,5-triol]",< 100 nM
5,"C[C@@H]1[C@@H](O)[C@H](O)[C@@H](O)CN1CCCc1ccsc1 [Example 81, (2R,3R,4R,5S)-2-methyl-1-(3-(thiophen-3-yl)propyl)piperidine-3,4,5-triol]",< 100 nM
6,"C[C@@H]1[C@@H](O)[C@H](O)[C@@H](O)CN1CC1CCN(c2ccccc2)CC1 [Example 82, (2R,3R,4R,5S)-2-methyl-1-((1-phenylpiperidin-4-yl)methyl)piperidine-3,4,5-triol]",100 to 1000 nM
7,"C[C@@H]1[C@@H](O)[C@H](O)[C@@H](O)CN1CC1(C)CCN(c2ccccc2)CC1 [Example 87, (2R,3R,4R,5S)-2-methyl-1-((4-methyl-1-phenylpiperidin-4-yl)methyl)piperidine-3,4,5-triol]",1000 to 25000 nM
8,"C[C@@H]1[C@@H](O)[C@H](O)[C@@H](O)CN1CC1(F)CCN(c2ccccc2)CC1 [Example 88, (2R,3R,4R,5S)-1-((4-fluoro-1-phenylpiperidin-4-yl)methyl)-2-methylpiperidine-3,4,5-triol]",100 to 1000 nM
9,"C[C@@H]1[C@@H](O)[C@H](O)[C@@H](O)CN1CCC1CCN(c2ccccc2)CC1 [Example 89, (2R,3R,4R,5S)-2-methyl-1-(2-(1-phenylpiperidin-4-yl)ethyl)piperidine-3,4,5-triol]",< 100 nM
10,"C[C@@H]1[C@@H](O)[C@H](O)[C@@H](O)CN1CC1CCN(C(=O)CC2CCCC2)CC1 [Example 97, 2-cyclopentyl-1-(4-(((2R,3R,4R,5S)-3,4,5-trihydroxy-2-methylpiperidin-1-yl)methyl)piperidin-1-yl)ethanone]",100 to 1000 nM
11,"C[C@@H]1[C@@H](O)[C@H](O)[C@@H](O)CN1CC1CCN(C(=O)C2CCCC2)CC1 [Example 100, cyclopentyl(4-(((2R,3R,4R,5S)-3,4,5-trihydroxy-2-methylpiperidin-1-yl)methyl)piperidin-1-yl)methanone]",100 to 1000 nM
12,"C[C@@H]1[C@@H](O)[C@H](O)[C@@H](O)CN1CC1CCN(C(=O)C2CCCCC2)CC1 [Example 101, cyclohexyl(4-(((2R,3R,4R,5S)-3,4,5-trihydroxy-2-methylpiperidin-1-yl)methyl)piperidin-1-yl)methanone]",100 to 1000 nM
13,"C[C@@H]1[C@@H](O)[C@H](O)[C@@H](O)CN1CC1CCN(C(=O)[C@H]2CC[C@@H](C(C)(C)C)CC2)CC1 [Example 102, ((1s,4S)-4-(tert-butyl)cyclohexyl)(4-(((2R,3R,4R,5S)-3,4,5-trihydroxy-2-methylpiperidin-1-yl)methyl)piperidin-1-yl)methanone]",< 100 nM

# Results, then the compound that gave them:
row,IC50,Structure (SMILES)
1,< 100 nM,"C[C@@H]1[C@@H](O)[C@H](O)[C@@H](O)CN1CC1CCN(c2ccccc2F)CC1 [Example 83, (2R,3R,4R,5S)-1-((1-(2-fluorophenyl)piperidin-4-yl)methyl)-2-methylpiperidine-3,4,5-triol]"
2,< 100 nM,"C[C@@H]1[C@@H](O)[C@H](O)[C@@H](O)CN1CC1CCN(c2cccc(F)c2)CC1 [Example 84, (2R,3R,4R,5S)-1-((1-(3-fluorophenyl)piperidin-4-yl)methyl)-2-methylpiperidine-3,4,5-triol]"
3,< 100 nM,"C[C@@H]1[C@@H](O)[C@H](O)[C@@H](O)CN1CC1CCN(c2ccc(C(F)(F)F)cc2)CC1 [Example 86, (2R,3R,4R,5S)-2-methyl-1-((1-(4-(trifluoromethyl)phenyl)piperidin-4-yl)methyl)piperidine-3,4,5-triol]"
4,1000 to 25000 nM,"C[C@@H]1[C@@H](O)[C@H](O)[C@@H](O)CN1CC1CCN(c2cccnc2)CC1 [Example 90, (2R,3R,4R,5S)-2-methyl-1-((1-(pyridin-3-yl)piperidin-4-yl)methyl)piperidine-3,4,5-triol]"
5,100 to 1000 nM,"C[C@@H]1[C@@H](O)[C@H](O)[C@@H](O)CN1CC1CCN(CC(F)(F)F)CC1 [Example 91, (2R,3R,4R,5S)-2-methyl-1-((1-(2,2,2-trifluoroethyl)piperidin-4-yl)methyl)piperidine-3,4,5-triol]"
6,1000 to 25000 nM,"CC(C)C(=O)N1CCC(CN2C[C@H](O)[C@@H](O)[C@H](O)[C@H]2C)CC1 [Example 92, 2-methyl-1-(4-(((2R,3R,4R,5S)-3,4,5-trihydroxy-2-methylpiperidin-1-yl)methyl)piperidin-1-yl)propan-1-one]"
7,100 to 1000 nM,"C[C@@H]1[C@@H](O)[C@H](O)[C@@H](O)CN1CC1CCN(C(=O)C(C)(C)C)CC1 [Example 93, 2,2-dimethyl-1-(4-(((2R,3R,4R,5S)-3,4,5-trihydroxy-2-methylpiperidin-1-yl)methyl)piperidin-1-yl)propan-1-one]"
8,1000 to 25000 nM,"CCCC(=O)N1CCC(CN2C[C@H](O)[C@@H](O)[C@H](O)[C@H]2C)CC1 [Example 94, 1-(4-(((2R,3R,4R,5S)-3,4,5-trihydroxy-2-methylpiperidin-1-yl)methyl)piperidin-1-yl)butan-1-one]"
9,100 to 1000 nM,"CC(C)CC(=O)N1CCC(CN2C[C@H](O)[C@@H](O)[C@H](O)[C@H]2C)CC1 [Example 95, 3-methyl-1-(4-(((2R,3R,4R,5S)-3,4,5-trihydroxy-2-methylpiperidin-1-yl)methyl)piperidin-1-yl)butan-1-one]"
10,100 to 1000 nM,"C[C@@H]1[C@@H](O)[C@H](O)[C@@H](O)CN1CC1CCN(C(=O)CC(C)(C)C)CC1 [Example 96, 3,3-dimethyl-1-(4-(((2R,3R,4R,5S)-3,4,5-trihydroxy-2-methylpiperidin-1-yl)methyl)piperidin-1-yl)butan-1-one]"
11,1000 to 25000 nM,"C[C@@H]1[C@@H](O)[C@H](O)[C@@H](O)CN1CC1CCN(C(=O)C2CC2)CC1 [Example 98, cyclopropyl(4-(((2R,3R,4R,5S)-3,4,5-trihydroxy-2-methylpiperidin-1-yl)methyl)piperidin-1-yl)methanone]"
12,100 to 1000 nM,"C[C@@H]1[C@@H](O)[C@H](O)[C@@H](O)CN1CC1CCN(C(=O)C2CCC2)CC1 [Example 99, cyclobutyl(4-(((2R,3R,4R,5S)-3,4,5-trihydroxy-2-methylpiperidin-1-yl)methyl)piperidin-1-yl)methanone]"
